Experiments:
EGFR (WT) = EGFR (WT) (Homo sapiens (Human), UniProt P00533); assay: Kinase-Glo luminescent kinase assay, EGFR tyrosine kinase inhibitory activity (WT); assay type: biochemical; conditions: EGFR wild type
Method: (§1) Determination of the Compound Inhibitory Activity Against EGFR Kinase
(§2) The inhibitory activity of compounds in formula (I) and (II) were determined using Kinase-Glo luminescent kinase assay. The receptor tyrosine kinase EGFR was tested and Gefitinib, a known EGFR inhibitor, was chosen as the positive control compound. The method is detailed below:
(§3) The sample compounds were dissolved in DMSO and diluted it to 500 μM concentration with DMSO and transferred to a dose plate. The compounds were serially diluted with DMSO in 5 fold concentration. Then each concentration was diluted 10-fold with the reaction buffer to get a 10× final concentration. Transfer the compounds with concentrations ranging from 0.003 μM to 50 μM to EGFR assay plate to determine their kinase activity with a dose of 1 μL/well.
(§4) The positive control compound Gifitinib was dissolved in DMSO as 10 mM stock solution and diluted it to 100 μM concentration with DMSO. The control compound was serially diluted with DMSO in 5 fold concentration. Then each concentration was diluted 10-fold with the reaction buffer to get a 10× final concentration.
(§5) For the HPE (hundred percent effect: No kinase and no compound, but containing ATP, substrate and 1% DMSO) and ZPE (zero percent effect: No compound but containing kinase, ATP, substrate and 1% DMSO) wells, dilute 2 μL DMSO 10-fold with reaction buffer to obtain 10% DMSO solution. Then transfer it to the assay plat, 1 μL/well. The positive control wells contain kinase, ATP, substrate and positive control compound in different concentrations. The sample compound wells contain kinase, ATP, substrate and the compounds to be tested in different concentrations.
(§6) Preparation of the reagents in need: 4×ATP: dilute ATP 4 times with assay buffer to obtain a working solution; 4× substrate: dilute Poly ([…]: tyrosine) 4 times with assay buffer to obtain a working solution; 2.5×EGFR kinase: dilute EGFR kinase 2.5 times with assay buffer to obtain a working solution.
(§7) Kinase reaction: Add 10× compounds to the assay plate in a 384-well plate layout, 1 μL/well. For the HPE and ZPE wells, equal volume (1 μL/well) of 10% DMSO was added to the 384-well assay plate; Add 2.5×EGFR kinase into the assay plate in 384-well plate layout, 4 μL/well. For HPE and ZPE wells, an equal volume (4 μL/well) of assay buffer was added to the 384-well assay plate; Centrifuge the assay plate with 1000 rpm for 1 min to mix them; Pre-incubate the assay plate for 30 min at 30° C.; Mix equal volume of 4×ATP and 4× substrate to obtain 2×ATP-substrate mixture which serves as a reaction mixture for the determination of EGFR activity; Add 2×ATP-substrate mixture to the assay plate, 5 μL/well; Centrifuge the assay plate at 1000 rpm for 1 min to mix them; Incubate the assay plate for one hour at 30° C.; Add Kinase glo plus was to each well (10 μL/well), and then incubated the assay plate for 20 min at 27° C.; Read luminescence signal with Envision plate reader.

EGFR (T790M) = EGFR (T790M) (Homo sapiens (Human), UniProt P00533, T790M); assay: Kinase-Glo luminescent kinase assay, EGFR tyrosine kinase inhibitory activity (T790M); assay type: biochemical
Chain of EGFR (T790M) (P00533 25-1210 T790M): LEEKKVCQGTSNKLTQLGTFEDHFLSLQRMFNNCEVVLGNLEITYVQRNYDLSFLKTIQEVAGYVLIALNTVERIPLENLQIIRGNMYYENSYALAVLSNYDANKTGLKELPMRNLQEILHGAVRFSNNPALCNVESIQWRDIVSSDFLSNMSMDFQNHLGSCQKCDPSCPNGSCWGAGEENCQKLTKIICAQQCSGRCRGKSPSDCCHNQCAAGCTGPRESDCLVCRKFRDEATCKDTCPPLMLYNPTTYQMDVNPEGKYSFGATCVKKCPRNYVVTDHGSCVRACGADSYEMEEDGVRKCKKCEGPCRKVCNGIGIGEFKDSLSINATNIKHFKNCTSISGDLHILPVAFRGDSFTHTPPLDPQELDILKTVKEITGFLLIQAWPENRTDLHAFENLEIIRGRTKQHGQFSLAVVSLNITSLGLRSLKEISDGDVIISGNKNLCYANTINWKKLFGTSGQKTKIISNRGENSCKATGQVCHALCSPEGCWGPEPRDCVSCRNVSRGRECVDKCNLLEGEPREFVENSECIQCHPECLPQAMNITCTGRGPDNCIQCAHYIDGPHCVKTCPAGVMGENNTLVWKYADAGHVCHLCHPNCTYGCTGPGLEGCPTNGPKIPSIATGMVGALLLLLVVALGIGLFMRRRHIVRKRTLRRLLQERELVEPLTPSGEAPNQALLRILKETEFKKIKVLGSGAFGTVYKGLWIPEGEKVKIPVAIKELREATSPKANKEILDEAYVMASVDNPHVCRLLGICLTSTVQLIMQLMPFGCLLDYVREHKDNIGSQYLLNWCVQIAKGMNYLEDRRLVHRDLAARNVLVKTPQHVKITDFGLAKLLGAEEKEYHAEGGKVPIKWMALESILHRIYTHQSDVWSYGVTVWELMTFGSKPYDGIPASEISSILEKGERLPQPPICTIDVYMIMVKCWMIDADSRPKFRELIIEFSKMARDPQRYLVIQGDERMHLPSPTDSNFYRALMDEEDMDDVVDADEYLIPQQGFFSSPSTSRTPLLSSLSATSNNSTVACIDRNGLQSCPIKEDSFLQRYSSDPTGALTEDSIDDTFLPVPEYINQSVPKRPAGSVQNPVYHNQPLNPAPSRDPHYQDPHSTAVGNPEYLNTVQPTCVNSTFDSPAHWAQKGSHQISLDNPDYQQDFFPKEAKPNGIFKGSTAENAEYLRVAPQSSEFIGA
Method: as §1, §2, §3, §4, §5, §6, §7

H358 cells = assay: Anti-proliferative activity, cell-counting kit-8 assay, H358; assay type: cell-based; conditions: CCK-8
Method: (§8) Cell Assay of EGFR Activity
(§9) The anti-proliferative activity was determined using cell-counting kit-8 assay (Dojindo, Japan). H358 and A549 cells lines were seeded at a density of 8000 cells/well and 3000 cells/well respectively in 96-well microtiter plates and were incubated at 37° C. overnight in a humidified incubator containing 5% CO2. Cells were dosed with compounds at final concentrations ranging from 0.025 to 80 μM in each well of the plate. Three groups were set up, including compound group to be tested, blank control group, positive control group (gefitinib).
(§10) The 96-well plate was incubated in cell incubator for 72 hours. The culture fluid was then removed and 100 μl/well of PBS buffer was added. 10 μl/well of CCK-8 solution was added and the assay plate was incubated in the cell incubator for 1 hour. Cell survival was determined by measuring the absorbance at 470 nm using a microplate reader. A calibration curve was prepared using the average data of the 4 wells for each concentration that contain the number of viable cells to determine the IC50 of the target compounds.

A549 cells = assay: Anti-proliferative activity, cell-counting kit-8 assay, A549; assay type: cell-based; conditions: CCK-8
Method: as §8, §9, §10

[1] = in vivo; cited from earlier work
EGFR = EGFR (Homo sapiens (Human), UniProt P00533); conditions: molecular level; read-out: IC50 against EGFR activity; cited from earlier work
Chain of EGFR (P00533 25-1210): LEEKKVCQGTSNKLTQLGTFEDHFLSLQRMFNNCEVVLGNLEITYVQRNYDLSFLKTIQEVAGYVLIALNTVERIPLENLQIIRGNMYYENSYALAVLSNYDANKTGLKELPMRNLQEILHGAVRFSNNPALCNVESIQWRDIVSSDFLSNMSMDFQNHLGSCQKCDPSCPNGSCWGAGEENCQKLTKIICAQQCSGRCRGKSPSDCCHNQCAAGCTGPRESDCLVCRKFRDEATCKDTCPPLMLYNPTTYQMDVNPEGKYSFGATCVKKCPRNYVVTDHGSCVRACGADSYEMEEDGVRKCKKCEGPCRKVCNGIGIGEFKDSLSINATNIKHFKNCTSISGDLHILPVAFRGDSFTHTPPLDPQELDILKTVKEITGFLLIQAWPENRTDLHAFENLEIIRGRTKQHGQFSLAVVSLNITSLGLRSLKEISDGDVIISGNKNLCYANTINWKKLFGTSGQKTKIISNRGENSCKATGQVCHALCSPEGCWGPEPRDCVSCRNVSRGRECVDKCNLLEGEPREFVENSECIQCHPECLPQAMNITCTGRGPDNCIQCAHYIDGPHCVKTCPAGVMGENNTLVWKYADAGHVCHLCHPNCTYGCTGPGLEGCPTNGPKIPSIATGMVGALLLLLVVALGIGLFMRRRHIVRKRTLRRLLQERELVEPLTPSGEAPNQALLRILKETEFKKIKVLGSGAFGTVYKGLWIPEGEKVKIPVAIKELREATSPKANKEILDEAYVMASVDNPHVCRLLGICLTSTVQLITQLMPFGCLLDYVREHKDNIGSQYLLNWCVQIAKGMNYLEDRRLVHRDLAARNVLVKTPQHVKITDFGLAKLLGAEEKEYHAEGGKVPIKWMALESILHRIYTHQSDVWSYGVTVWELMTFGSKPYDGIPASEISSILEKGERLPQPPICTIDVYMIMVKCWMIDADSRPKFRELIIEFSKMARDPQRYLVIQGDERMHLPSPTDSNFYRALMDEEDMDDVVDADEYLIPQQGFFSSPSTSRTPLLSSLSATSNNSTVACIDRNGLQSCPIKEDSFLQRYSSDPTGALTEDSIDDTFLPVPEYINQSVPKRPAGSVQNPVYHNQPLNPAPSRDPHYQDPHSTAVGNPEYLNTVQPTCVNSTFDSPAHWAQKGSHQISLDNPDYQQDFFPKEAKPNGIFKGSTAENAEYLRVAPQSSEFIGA

remaining 81 kinase = conditions: screening of 85 kinases; selectively inhibits EGFR and 3 other mutants; cited from earlier work

Chain of EGFR (WT) (P00533 25-1210): as above

SMILES | IC50 (EGFR (WT)) [µM] | IC50 (EGFR (T790M)) [µM] | IC50 (H358 cells; Homo sapiens, NCI-H358, 72 h) [µM] | IC50 (A549 cells; Homo sapiens, A549, 72 h) [µM] | IC50 (H358 cells; 72 hours) [µM] | IC50 (A549 cells; 72 hours) [µM] | oral bioavailability [1] [%] | IC50 (EGFR) [µM] | effect on the remaining 81 kinase (remaining 81 kinase)
CCOC(C)Oc1cc2ncnc(Nc3ccc(F)c([N+](=O)[O-])c3)c2c2c1OCCO2 (stereo not drawn) [Compound I-16, 5-(1-Ethoxyethoxy)-N-(4-fluoro-3-nitrophenyl)-2,3-dihydro-[1,4]dioxino[2,3-f]quinazolin-10-amine] | < 0.3 | < 0.3 | 17.5 | 17.5 | – | – | – | – | –
Fc1cc(Nc2ncnc3cc(OC4CCOCC4)c4c(c23)OCCO4)ccc1Cl [Compound I-22, N-(4-Chloro-3-fluorophenyl)-5-(tetrahydro-2H-pyran-4-yloxy)-2,3-dihydro-[1,4]dioxino[2,3-f]-quinazolin-10-amine] | < 0.1 | < 1 | > 20 | > 20 | – | – | – | – | –
Fc1cc(Nc2ncnc3cc(OC4CCOC4)c4c(c23)OCCO4)ccc1Cl (stereo not drawn) [Compound I-23, N-(4-Chloro-3-fluorophenyl)-5-(tetrahydrofuran-3-yloxy)-2,3-dihydro-[1,4]dioxino[2,3-f]quinazolin-10-amine] | < 0.05 | < 0.1 | 13 | 15.1 | – | – | – | – | –
COCC(C)Oc1cc2ncnc(Nc3ccc(F)c(Cl)c3)c2c2c1OCCO2 (stereo not drawn) [Compound I-25, N-(3-Chloro-4-fluorophenyl)-5-(1-methoxypropan-2-yloxy)-2,3-dihydro-[1,4]dioxino[2,3-H]quinazolin-10-amine] | – | – | 10.6 | 10.4 | – | – | – | – | –
COCCOc1cc2ncnc(Nc3cccc(OC)c3)c2c2c1OCCO2 [Compound I-33, 5-(2-Methoxyethoxy)-N-(3-methoxyphenyl)-2,3-dihydro-[1,4]dioxino[2,3-f]quinazolin-10-amine] | < 0.2 | < 1 | 9.64 | 12.1 | – | – | – | – | –
CCOc1cc2ncnc(Nc3ccc(C)c(Cl)c3)c2c2c1OCCO2 [Compound I-37, N-(3-Chloro-4-methylphenyl)-5-ethoxy-2,3-dihydro-[1,4]dioxino[2,3-f]quinazolin-10-amine] | < 0.05 | < 0.05 | 11.6 | 12.1 | – | – | – | – | –
O=C1COc2cc3ncnc(Nc4ccc(F)c(Cl)c4)c3cc2N1CCCN1CCOCC1 [II-1, 4-((3-Chloro-4-fluorophenyl)amino)-6-(3-morpholinopropyl)-6H-[1,4]oxazino[3,2-g]quinazolin-7(8H)-one] | < 0.05 | < 0.3 | – | – | 13.5 | 7.51 | – | – | –
O=C1COc2cc3ncnc(Nc4ccc(F)c(Cl)c4)c3cc2N1CCCN1CCOCC1 [II-2, 4-((3-Chloro-4-fluorophenyl)amino)-6-(3-morpholinopropyl)-6H-[1,4]oxazino[3,2-g]quinazolin-7(8H)-one] | < 0.2 | < 1 | 13.5 | 5.58 | – | – | – | – | –
C#Cc1cccc(Nc2ncnc3cc(OCCOC)c(OCCOC)cc23)c1 [erlotinib, Erlotinib] | – | – | – | – | – | – | 80 | – | –
C#Cc1cccc(Nc2ncnc3cc4c(cc23)OCCOCCOCCO4)c1 [icotinib, Icotinib] | – | – | – | – | – | – | – | 5 | no significant effect

Now from value to molecule, other results behind:

IC50 (EGFR (WT)) [µM] | IC50 (EGFR (T790M)) [µM] | IC50 (H358 cells; Homo sapiens, NCI-H358, 72 h) [µM] | IC50 (A549 cells; Homo sapiens, A549, 72 h) [µM] | SMILES | IC50 (H358 cells; 72 hours) [µM] | IC50 (A549 cells; 72 hours) [µM] | oral bioavailability [1] [%] | IC50 (EGFR) [µM] | effect on the remaining 81 kinase (remaining 81 kinase)
< 0.05 | < 0.05 | 6.92 | 11.6 | CC(C)Oc1cc2ncnc(Nc3ccc(F)c(Cl)c3)c2c2c1OCCO2 [Compound I-7, N-(3-Chloro-4-fluorophenyl)-5-isopropoxy-2,3-dihydro-[1,4]dioxino[2,3-f]quinazolin-10-amine] | – | – | – | – | –
< 0.05 | < 0.05 | 5.54 | 6.08 | C#Cc1cccc(Nc2ncnc3cc(OC(C)C)c4c(c23)OCCO4)c1 [Compound I-8, N-(3-Ethynylphenyl)-5-isopropoxy-2,3-dihydro-[1,4]dioxino[2,3-f]quinazolin-10-amine] | – | – | – | – | –
< 0.1 | < 1 | 1.47 | 6.42 | C#Cc1cccc(Nc2ncnc3cc(OC4CCOCC4)c4c(c23)OCCO4)c1 [Compound I-21, N-(3-Ethynylphenyl)-5-(tetrahydro-2H-pyran-4-yloxy)-2,3-dihydro-[1,4]dioxino[2,3-f]quinazolin-10-amine] | – | – | – | – | –
< 0.05 | < 0.3 | 8.58 | 9.69 | C#Cc1cccc(Nc2ncnc3cc(OC4CCOC4)c4c(c23)OCCO4)c1 (stereo not drawn) [Compound I-24, N-(3-Ethynylphenyl)-5-(tetrahydrofuran-3-yloxy)-23-dihydro-[1,4]dioxino[2,3-f]quinazolin-10-amine] | – | – | – | – | –
< 0.05 | < 0.05 | 5.93 | 13.9 | COCCOc1cc2ncnc(Nc3ccc(F)c(Cl)c3)c2c2c1OCCO2 [Compound I-30, N-(3-Chloro-4-fluorophenyl)-5-(2-methoxyethoxy)-2,3-dihydro-[1,4]dioxino[2,3-f]quinazolin-10-amine] | – | – | – | – | –
< 0.05 | < 0.05 | 8.89 | 10.5 | C#Cc1cccc(Nc2ncnc3cc(OCC)c4c(c23)OCCO4)c1 [Compound I-35, 5-Ethoxy-N-(3-ethynylphenyl)-2,3-dihydro-[1,4]dioxino[2,3-f]quinazolin-10-amine] | – | – | – | – | –
< 0.05 | < 0.05 | 7.41 | 12 | CCOc1cc2ncnc(Nc3cccc(OC)c3)c2c2c1OCCO2 [Compound I-36, 5-Ethoxy-N-(3-methoxyphenyl)-2,3-dihydro-[1,4]dioxino[2,3-f]quinazolin-10-amine] | – | – | – | – | –
< 0.05 | < 0.1 | 6.1 | 10.2 | CCOc1cc2ncnc(Nc3ccc(C)cc3)c2c2c1OCCO2 [Compound I-39, 5-Ethoxy-N-p-tolyl-2,3-dihydro-[1,4]dioxino[2,3-f]quinazolin-10-amine] | – | – | – | – | –
< 0.05 | < 0.1 | 9.51 | 11.5 | C#Cc1cccc(Nc2ncnc3cc(OCC4CCCO4)c4c(c23)OCCO4)c1 (stereo not drawn) [Compound I-41, N-(3-Ethynylphenyl)-5-((tetrahydrofuran-2-yl)methoxy)-2,3-dihydro-[1,4]dioxino[2,3-f]quinazolin-10-amine] | – | – | – | – | –

— patent publication US10106508B2, “Quinazoline heterocyclic compound as EGFR kinase inhibitor and preparation and application thereof” (BEIJING SCITECH-MQ PHARMACEUTICALS LIMITED, priority 2015, dated 2018)
